Test results taken from patent publication US8252814B2, “Agents and crystals for improving excretory potency of urinary bladder” (priority 1998, dated 2012).

Tests used:
[1] = target: T1, human erythrocyte-derived acetylcholine esterase (Homo sapiens, UniProt P22303); test: Determination of the activity to inhibit the acetylcholine esterase of the crystals (Ellman method), Experimental Example 5; format: biochemical; details: at least three experiments
T1 construct: Acetylcholinesterase of human erythrocyte origin (Sigma Chemical Co.); purchased Sigma Chemical Co; host or cells: human erythrocytes (natural source)
Procedure: The activity to inhibit the acetylcholine esterase of the crystals obtained in Example 1 was determined according to the acetylthiocholine method (the Ellman method) by the use of a human erythrocyte-derived acetylcholine esterase.
A human erythrocyte-derived acetylcholine esterase (Sigma Chemical Company) was dissolved into distilled water to obtain a standard enzyme preparation with an enzyme concentration of 0.2 IU/mL. […]
The activity to inhibit the acetylcholine esterase of the crystals obtained in Example 1 was determined according to the acetylthiocholine method (the ElIman method) by the use of a human erythrocyte-derived acetylcholine esterase.
A human erythrocyte-derived acetylcholine esterase (Sigma Chemical Company) was dissolved into distilled water to obtain a standard enzyme preparation with an enzyme concentration of 0.2 IU/mL. […] As soon as 50 μl of a 4-mM solution of acetylthiocholine iodide (Sigma Chemical Company) was added and shaking was started again, every increment in absorbance at the wavelength of 414 nm at an interval of 30 seconds was determined for 10 minutes. R=5.74×10^−7×ΔA (wherein R indicates an enzyme activity (mol) and ΔA indicates an increment in absorbance at the wavelength of 414 nm). […] Furthermore, the activity to inhibit the acetylcholine esterase of distigmine was determined in a manner similar to that described in the above method.

[2] = Stability test, Experimental Example 7; format: physicochemical
Procedure: A number of specimens of the crystals obtained in Example 1 were stored under the following conditions and then their changes in the property and the remaining percent were determined.
Storing conditions: 1. 60° C. for 3 months (in a brown glass bottle, closed); 2. 45° C., the relative humidity of 75% for 3 months (in a brown glass bottle, closed); 3. 40° C., the to relative humidity of 75% for 3 months (in a brown glass bottle, opened); 4. irradiated with a xenon lamp (60000 lux) for 20 hours (1.2 million lux/hour) (on a Petri dish covered with a polyvinylidene chloride film).

T1 sequence (P22303 32-617 isoform P22303-2 limits assumed): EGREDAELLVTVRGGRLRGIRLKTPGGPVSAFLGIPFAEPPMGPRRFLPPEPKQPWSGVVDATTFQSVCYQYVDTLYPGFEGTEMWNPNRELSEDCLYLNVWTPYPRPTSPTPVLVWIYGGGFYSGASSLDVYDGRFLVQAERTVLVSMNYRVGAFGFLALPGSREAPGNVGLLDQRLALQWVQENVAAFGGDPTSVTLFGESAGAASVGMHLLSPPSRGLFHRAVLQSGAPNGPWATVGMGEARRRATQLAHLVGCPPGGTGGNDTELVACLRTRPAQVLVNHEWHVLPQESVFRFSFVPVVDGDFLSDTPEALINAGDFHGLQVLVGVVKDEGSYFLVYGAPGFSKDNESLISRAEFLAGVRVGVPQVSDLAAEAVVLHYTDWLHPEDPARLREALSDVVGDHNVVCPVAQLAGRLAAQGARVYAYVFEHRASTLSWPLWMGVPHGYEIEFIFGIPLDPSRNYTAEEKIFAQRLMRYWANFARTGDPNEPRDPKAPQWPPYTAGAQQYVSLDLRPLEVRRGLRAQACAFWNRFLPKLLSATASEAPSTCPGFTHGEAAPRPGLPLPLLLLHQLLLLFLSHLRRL

O=C(CCC1CCN(Cc2cccc(F)c2)CC1)c1cc2c3c(c1)CCN3C(=O)CC2 [Example 1, 8-[3-[1-[(3-fluorophenyl)-methyl]-4-piperidinyl]-1-oxopropyl]-1,2,5,6-tetrahydro-4H-pyrrolo-[3,2,1-ij]quinolin-4-one]
IC50 [1]: 6.6 nM
Remaining percent (%) ([2]; storing condition 1 (60° C./3 months), brown glass bottle, closed): 99.8%
Remaining percent (%) ([2]; storing condition 2 (40° C./75% RH, closed), 3 months, brown glass bottle): 101.6%
Remaining percent (%) ([2]; storing condition 3 (40° C./75% RH, open), 3 months, brown glass bottle): 100.2%
Remaining percent (%) ([2]; storing condition 4 (Xenon lamp/20 hs.), 60000 lux): 100.1%
stability (in words) ([2]; storing conditions 1 to 4): any change in the property and any decrease in the remaining percent were not observed
